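Growth conditions: 96-well plates. Treatment: test compound, 48 hours, 5 concentrations. Analysis: linear interpolation between bracketing concentrations; unreached endpoints set to highest concentration. The concentration for full growth arrest is given as TGI.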
What was measured:
Assay in all cases: NCI-60 cell line screen, 48 h
[1] = test system: SK-MEL-2 melanoma
[2] = test system: IGROV1 ovarian
[3] = test system: BT-549 breast
[4] = test system: SF-539 CNS
[5] = test system: NCI/ADR-RES ovarian
[6] = test system: HL-60(TB) leukemia
[7] = test system: SN12C renal
[8] = test system: OVCAR-5 ovarian
[9] = test system: CCRF-CEM leukemia
[10] = test system: SNB-19 CNS
[11] = test system: NCI-H460 lung
[12] = test system: A498 renal
[13] = test system: HCT-15 colon
[14] = test system: KM12 colon
[15] = test system: MALME-3M melanoma
[16] = test system: UO-31 renal
[17] = test system: MDA-MB-435
[18] = test system: OVCAR-8 ovarian
[19] = test system: NCI-H23 lung
[20] = test system: SK-MEL-28 melanoma
[21] = test system: A549 NSCLC
[22] = test system: MDA-N
[23] = test system: CAKI-1 renal
[24] = test system: HOP-92 NSCLC
[25] = test system: SK-OV-3 ovarian
[26] = test system: COLO 205 colon
[27] = test system: EKVX NSCLC
[28] = test system: SW-620 colon
[29] = test system: HOP-62 NSCLC
[30] = test system: OVCAR-4 ovarian
[31] = test system: SF-295 CNS
[32] = test system: RPMI-8226 leukemia
[33] = test system: ACHN renal
[34] = test system: K-562 leukemia
[35] = test system: MDA-MB-231 breast
[36] = test system: LOX IMVI melanoma
[37] = test system: SF-268 CNS
[38] = test system: UACC-257 melanoma
[39] = test system: SNB-75 CNS
[40] = test system: TK-10 renal
[41] = test system: DU-145 prostate
[42] = test system: NCI-H522 lung
[43] = test system: PC-3 prostate
[44] = test system: MOLT-4 leukemia
[45] = test system: M14 melanoma
[46] = test system: 786-0 renal
[47] = test system: OVCAR-3 ovarian
[48] = test system: UACC-62 melanoma
[49] = test system: SK-MEL-5 melanoma
[50] = test system: HS 578T breast
[51] = test system: SR leukemia
[52] = test system: T-47D breast
[53] = test system: HT29 colon
[54] = test system: U251 CNS
[55] = test system: MCF7 breast
[56] = test system: HCT-116 colon
[57] = test system: NCI-H226 lung
[58] = test system: HCC-2998 colon

Q: `CC(C)(C)OC(=O)n1c(Cl)c(C=O)c2ccccc21` was tested. Which TGI [1] did it give?
A: 96.4 µM

Q: What about the TGI [2] of the same compound?
A: > 100 µM

Q: What about the TGI [3] of the same compound?
A: 52.5 µM

Q: And the TGI [4]?
A: 89.1 µM

Q: And the TGI [5]?
A: 58 µM

Q: What about the TGI [6] of the same compound?
A: > 100 µM

Q: And the TGI [7]?
A: 54.3 µM

Q: What about the TGI [8] of the same compound?
A: 72.3 µM

Q: What about the TGI [9] of the same compound?
A: 79.4 µM

Q: What about the TGI [10] of the same compound?
A: > 100 µM

Q: What about the TGI [11] of the same compound?
A: 46.1 µM

Q: And the TGI [12]?
A: > 100 µM

Q: And the TGI [13]?
A: 70.4 µM

Q: What about the TGI [14] of the same compound?
A: 39.2 µM

Q: What about the TGI [15] of the same compound?
A: 39.9 µM

Q: What about the TGI [16] of the same compound?
A: 41.3 µM

Q: What about the TGI [17] of the same compound?
A: > 100 µM

Q: What about the TGI [18] of the same compound?
A: > 100 µM

Q: And the TGI [19]?
A: 47 µM

Q: What about the TGI [20] of the same compound?
A: > 100 µM

Q: And the TGI [21]?
A: > 100 µM

Q: What about the TGI [22] of the same compound?
A: > 100 µM

Q: What about the TGI [23] of the same compound?
A: 35.4 µM

Q: What about the TGI [24] of the same compound?
A: 56.8 µM

Q: And the TGI [25]?
A: > 100 µM

Q: And the TGI [26]?
A: > 100 µM

Q: And the TGI [27]?
A: 76.6 µM

Q: What about the TGI [28] of the same compound?
A: > 100 µM

Q: And the TGI [29]?
A: 43 µM

Q: And the TGI [30]?
A: > 100 µM

Q: What about the TGI [31] of the same compound?
A: > 100 µM

Q: And the TGI [32]?
A: 44.3 µM

Q: And the TGI [33]?
A: 52.9 µM

Q: What about the TGI [34] of the same compound?
A: > 100 µM

Q: What about the TGI [35] of the same compound?
A: 84.5 µM

Q: What about the TGI [36] of the same compound?
A: 68.1 µM

Q: And the TGI [37]?
A: 36.2 µM

Q: What about the TGI [38] of the same compound?
A: 67.3 µM

Q: And the TGI [39]?
A: > 100 µM

Q: What about the TGI [40] of the same compound?
A: 53.4 µM

Q: And the TGI [41]?
A: 39.6 µM

Q: What about the TGI [42] of the same compound?
A: > 100 µM

Q: And the TGI [43]?
A: 64.6 µM

Q: What about the TGI [44] of the same compound?
A: > 100 µM

Q: What about the TGI [45] of the same compound?
A: 82.9 µM

Q: What about the TGI [46] of the same compound?
A: 46.6 µM

Q: And the TGI [47]?
A: 40.8 µM

Q: And the TGI [48]?
A: 43.3 µM

Q: And the TGI [49]?
A: > 100 µM

Q: And the TGI [50]?
A: > 100 µM

Q: And the TGI [51]?
A: > 100 µM

Q: What about the TGI [52] of the same compound?
A: > 100 µM

Q: And the TGI [53]?
A: > 100 µM

Q: What about the TGI [54] of the same compound?
A: > 100 µM

Q: With `Cc1cn([C@H]2C[C@H](O)[C@@H](CO)O2)c(=O)nc1N` as the compound, how does the TGI [1] read?
A: > 100 µM

Q: What about the TGI [2] of the same compound?
A: > 100 µM

Q: And the TGI [3]?
A: > 100 µM

Q: What about the TGI [4] of the same compound?
A: > 100 µM

Q: And the TGI [5]?
A: > 100 µM

Q: What about the TGI [6] of the same compound?
A: > 100 µM

Q: And the TGI [7]?
A: > 100 µM

Q: What about the TGI [8] of the same compound?
A: > 100 µM

Q: And the TGI [9]?
A: > 100 µM

Q: And the TGI [10]?
A: > 100 µM

Q: What about the TGI [55] of the same compound?
A: > 100 µM

Q: What about the TGI [11] of the same compound?
A: > 100 µM

Q: And the TGI [12]?
A: > 100 µM

Q: What about the TGI [13] of the same compound?
A: > 100 µM

Q: And the TGI [14]?
A: > 100 µM

Q: What about the TGI [56] of the same compound?
A: > 100 µM

Q: What about the TGI [15] of the same compound?
A: > 100 µM

Q: And the TGI [16]?
A: > 100 µM

Q: And the TGI [17]?
A: > 100 µM

Q: What about the TGI [18] of the same compound?
A: > 100 µM

Q: What about the TGI [19] of the same compound?
A: > 100 µM

Q: And the TGI [20]?
A: > 100 µM

Q: And the TGI [21]?
A: > 100 µM

Q: What about the TGI [22] of the same compound?
A: > 100 µM

Q: What about the TGI [23] of the same compound?
A: > 100 µM

Q: What about the TGI [25] of the same compound?
A: > 100 µM

Q: And the TGI [26]?
A: > 100 µM

Q: And the TGI [28]?
A: > 100 µM

Q: What about the TGI [29] of the same compound?
A: > 100 µM

Q: What about the TGI [30] of the same compound?
A: > 100 µM

Q: What about the TGI [31] of the same compound?
A: > 100 µM

Q: What about the TGI [32] of the same compound?
A: > 100 µM

Q: And the TGI [33]?
A: > 100 µM

Q: What about the TGI [34] of the same compound?
A: > 100 µM

Q: What about the TGI [35] of the same compound?
A: > 100 µM

Q: What about the TGI [36] of the same compound?
A: > 100 µM

Q: And the TGI [37]?
A: > 100 µM

Q: What about the TGI [38] of the same compound?
A: > 100 µM

Q: What about the TGI [39] of the same compound?
A: > 100 µM

Q: What about the TGI [40] of the same compound?
A: > 100 µM

Q: What about the TGI [41] of the same compound?
A: > 100 µM

Q: What about the TGI [42] of the same compound?
A: > 100 µM

Q: What about the TGI [43] of the same compound?
A: > 100 µM

Q: And the TGI [44]?
A: > 100 µM

Q: What about the TGI [45] of the same compound?
A: > 100 µM

Q: What about the TGI [46] of the same compound?
A: > 100 µM

Q: And the TGI [47]?
A: > 100 µM

Q: What about the TGI [48] of the same compound?
A: > 100 µM

Q: What about the TGI [49] of the same compound?
A: > 100 µM

Q: And the TGI [50]?
A: > 100 µM

Q: What about the TGI [51] of the same compound?
A: > 100 µM

Q: What about the TGI [52] of the same compound?
A: > 100 µM

Q: And the TGI [53]?
A: > 100 µM

Q: And the TGI [57]?
A: > 100 µM

Q: And the TGI [54]?
A: > 100 µM

Q: `Cc1c2cccc-2c(OCCOC(=O)n2ccnc2)cc2c1[nH]c1ccccc12` was tested. Which TGI [1] did it give?
A: 5.48 µM

Q: What about the TGI [2] of the same compound?
A: 6.23 µM

Q: And the TGI [3]?
A: 9.06 µM

Q: What about the TGI [6] of the same compound?
A: 5.46 µM

Q: What about the TGI [7] of the same compound?
A: 5.89 µM

Q: What about the TGI [8] of the same compound?
A: 7.51 µM

Q: What about the TGI [10] of the same compound?
A: 5.97 µM

Q: And the TGI [55]?
A: 19.5 µM

Q: What about the TGI [11] of the same compound?
A: 18.1 µM

Q: What about the TGI [12] of the same compound?
A: 21 µM

Q: What about the TGI [13] of the same compound?
A: 5.95 µM

Q: And the TGI [14]?
A: 4.65 µM

Q: And the TGI [56]?
A: 10.3 µM

Q: What about the TGI [15] of the same compound?
A: 7.61 µM

Q: What about the TGI [16] of the same compound?
A: 3.39 µM

Q: And the TGI [17]?
A: 9.69 µM

Q: What about the TGI [18] of the same compound?
A: 5.22 µM

Q: And the TGI [19]?
A: 6.31 µM

Q: What about the TGI [20] of the same compound?
A: 4.63 µM

Q: What about the TGI [21] of the same compound?
A: 11 µM

Q: What about the TGI [22] of the same compound?
A: 17.5 µM

Q: And the TGI [23]?
A: 17.8 µM

Q: What about the TGI [24] of the same compound?
A: 4.28 µM

Q: What about the TGI [25] of the same compound?
A: 18.8 µM

Q: And the TGI [27]?
A: 4.18 µM

Q: And the TGI [28]?
A: 14.4 µM

Q: What about the TGI [29] of the same compound?
A: 28.4 µM

Q: And the TGI [30]?
A: 5.63 µM

Q: And the TGI [31]?
A: 10.9 µM

Q: What about the TGI [32] of the same compound?
A: 9.9 µM

Q: And the TGI [33]?
A: 7.27 µM

Q: And the TGI [34]?
A: 21.7 µM

Q: And the TGI [36]?
A: 3.86 µM

Q: And the TGI [58]?
A: 12.1 µM

Q: What about the TGI [37] of the same compound?
A: 5.8 µM

Q: And the TGI [38]?
A: 6.24 µM

Q: What about the TGI [39] of the same compound?
A: 3.02 µM

Q: And the TGI [40]?
A: 14.4 µM

Q: And the TGI [41]?
A: 22 µM

Q: What about the TGI [42] of the same compound?
A: 4.66 µM

Q: And the TGI [43]?
A: 3.48 µM

Q: What about the TGI [44] of the same compound?
A: 25.2 µM

Q: What about the TGI [45] of the same compound?
A: 10.5 µM

Q: And the TGI [46]?
A: 19.9 µM

Q: What about the TGI [47] of the same compound?
A: 4.64 µM

Q: And the TGI [48]?
A: 6.63 µM

Q: What about the TGI [49] of the same compound?
A: 5.68 µM

Q: And the TGI [50]?
A: > 100 µM

Q: And the TGI [51]?
A: > 100 µM

Q: And the TGI [52]?
A: 8.15 µM

Q: And the TGI [53]?
A: 5.22 µM

Q: And the TGI [57]?
A: 8.13 µM
